One data set addresses human recombinant ALR2 (Homo sapiens, UniProt P15121). In words: ALR2 enzyme inhibition assay (NADPH oxidation, D,L-glyceraldehyde substrate). Format: biochemical. As for the experimental part:
(§1) All the title compounds were tested for their inhibitory activity against human recombinant ALR2.
(§2) The ALR2 inhibition activity was evaluated in a mixture of reaction with 50 μL NADPH (0.1 mM), 50 μL sodium phosphate buffer (pH = 6.2, 100 mM), 50 μL human recombinant ALR2, 1 μL dimethyl sulfoxide (DMSO) as solvent, and 50 μL D,L-glyceraldehyde (10 mM) which served as a substrate. […] Before the substrate was added, the mixture was incubated at 30 °C for 3 min, then the reaction was started when the substrate was added, and was monitored for 4 min.
(§3) The inhibitory activities of the title synthetic compounds against ALR2 and ALR1 were examined by adding 1 μL of the inhibitor solution to the ALR2 or ALR1 mixtures. All compounds were dissolved in DMSO, and the solutions were diluted with DMSO to desirable concentrations. To correct for the nonenzymatic oxidation of NADPH, the rate of NADPH oxidation in the presence of all of the reaction mixture components except the substrate was subtracted from each experimental rate. […] The inhibitory rates of tested compounds were calculated by equation as follows:Inhibitory rate (%) = (1 − ∆Asample/∆AE+DMSO) × 100%(1) sample = enzyme + compound + DMSO(2) E + DMSO = enzyme + DMSO(3)
(§4) The experiments were performed in triplicate.

The target of the next data set is T1, human recombinant ALR1 (Homo sapiens, UniProt P14550).
T1 sequence (P14550 1-325): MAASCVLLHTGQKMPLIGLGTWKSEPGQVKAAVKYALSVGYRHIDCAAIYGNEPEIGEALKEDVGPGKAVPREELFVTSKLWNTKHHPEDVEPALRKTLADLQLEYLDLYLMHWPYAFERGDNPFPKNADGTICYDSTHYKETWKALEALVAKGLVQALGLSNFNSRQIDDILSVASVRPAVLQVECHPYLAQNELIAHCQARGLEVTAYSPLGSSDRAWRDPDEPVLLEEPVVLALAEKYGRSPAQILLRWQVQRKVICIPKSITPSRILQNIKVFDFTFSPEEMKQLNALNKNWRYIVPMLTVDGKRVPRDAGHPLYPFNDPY
In words: ALR1 enzyme inhibition assay (NADPH oxidation, sodium D-gluconate substrate). Format: biochemical. As to conditions: for inhibition at 100 µM: read-out: ALR1 Inh. %; for SI: selectivity index, defined as IC50[ALR1]: IC50[ALR2]. The protocol:
as §1
as §2, with “min. The ALR1 inhibition activity experiment was conducted at 37 °C in the mixture containing 50 μL NADPH (0.12 mM), 50 μL human recombinant ALR1, 50 μL sodium phosphate buffer (pH = 7.2, 100 mM), 50 μL sodium […] (20 mM) as a substrate, and 1 μL DMSO as solvent. Before the substrate sodium […] was added, the mixture was incubated at 37 °C for 3 min, then the substrate was added to start the reaction, which was monitored for 4 min.” for “min.”
as §3, with “rate. The title compounds were tested at concentrations ranging from 100 μM to 1 μM, except compound 7l which were tested 10 μM to 0.1 μM.” for “rate.”
as §4

Data set [1] in a line: DPPH radical scavenging assay. The conditions noted are these: n = 3. The protocol:
In this part, the antioxidant activity was measured by an intrinsic chemical reactivity toward radicals, in a homogeneous reaction system of the methanol solution of 1,1-diphenyl-2-trinitrophenylhydrazine (DPPH) (0.2 mM), and 6-hydroxy-2,5,7,8-tetramethyl- chroman-2-carboxylic acid (Trolox) served as a reference compound.
(§5) Antioxidant assays were performed with the similar protocol as described previously.

Data set [2] deals with lipid peroxidation in rat brain homogenate. In words: Lipid peroxidation suppression (TBARS/MDA) in rat brain homogenate induced by Fe(III)/ascorbic acid. Type of data set: biochemical. As to conditions: tested in concentration of 100 μM, n = 3.
Description: Lipid peroxidation reactions involve free radical attacks on unsaturated fatty acid, producing free radicals and lipid peroxides which eventually harm the organism and usually decompose to form poisonous malonaldehyde (MDA). Thiobarbituric acid reactive substances (TBARS), which generated from the condensation of thiobarbituric acid and malondialdehyde, are considered as key biomarkers to determine the level of lipid peroxidation. For further identification that the derivatives tested in DPPH scavenging assay can be effective in heterogeneous oxidative pathway, the suppression effect of compounds on the hydroxyl radical-dependent lipoperoxidation in rat brain homogenate oxidant system which induced by Fe(III)/ascorbic acid was also evaluated.
Compounds 7a, 7c, 7g and 7k–l that were already described in the DPPH radical scavenging activity were investigated in the suppression of lipid peroxidation (Table 3).
as §5

On the set-up of data set [3]: method as in Lewis F. W. et al [36]. As to conditions: 100 μM column; ref Lewis F. W. et al [36]; cited from earlier work.
The test system of data set [4] is lipid peroxidation in rat brain homogenate. Further details: method as in Chaves S. et al. [37]. As to conditions: ref Chaves S. et al. [37]; cited from earlier work.
Setting [5] is: n = 3, mean ± SD, read-out: IC50 for ALR2.
[6] abbreviates: raw data, average of three replicates, unit not given (molar scale), read-out: IC50 average (ALR2).
[7] abbreviates: raw data, single replicate, unit not given (molar scale by log(dose)), read-out: IC50 (ALR2).
The mark [8] stands for this setting: tested in concentration of 100 μM, n = 3.

Structures are written as SMILES. Several values for one entry are separate records, joined by “and”; a condition that tells them apart may be missing. Equal entries are not always repeated. Where two headings read alike, the source gives them in different places. Where only a bound is given, the exact number is not on record here.

In general, IC50 refers to the point on the concentration scale where inhibition reaches its midpoint. A word on the melting point: it is the temperature of the solid-liquid transition. With `O=C(O)Cn1cc(O)c(=O)cc1C=Cc1ccccc1` [7a, (5-Hydroxy-4-oxo-2-styryl-4H-pyridin-1-yl)-acetic acid], the melting point lay within 254 to 255 °C. The IC50 at human recombinant ALR2 (setting [5]) came out at 8.41 ± 0.63 µM. The half-maximal inhibitory concentration (IC50) on human recombinant ALR2 (setting [6]) came to 8.41 µM. Besides, the 50% inhibitory concentration (IC50) at human recombinant ALR2 (setting [7]) was 7.85 µM and 8.09 µM and 9.28 µM. For the same molecule, at human recombinant ALR1 (n = 3), the IC50 was > 100 µM. Moreover, on human recombinant ALR1 (setting [8]), the inhibition at 100 µM stood at 38.8 ± 1.75%. Further, in data set [1] (100 μM), the “% of Inhibition of Control Value (DPPH)” value is 22.90 ± 3.30%. This molecule had an MDA inh. % in data set [2] of 19.28 ± 0.98%.
As for `Cc1ccc(C=Cc2cc(=O)c(O)cn2CC(=O)O)cc1` [7b, [5-Hydroxy-4-oxo-2-(2-p-tolyl-vinyl)-4H-pyridin-1-yl]-acetic acid], the melting point was 256 to 257 °C. In addition, at human recombinant ALR2 (setting [5]), the IC50 stood at 5.3 ± 0.6 µM. The IC50 at human recombinant ALR2 (setting [6]) came to 5.3 µM. Also, the IC50 on human recombinant ALR2 (setting [7]) is 4.48 µM and 5.49 µM and 5.91 µM.
As for `CC(C)(C)c1ccc(C=Cc2cc(=O)c(O)cn2CC(=O)O)cc1` [7c, {2-[2-(4-tert-Butyl-phenyl)-vinyl]-5-hydroxy-4-oxo-4H-pyridin-1-yl}-acetic acid], the IC50 at human recombinant ALR2 (setting [5]) was 2.98 ± 0.73 µM; at human recombinant ALR2 (setting [6]), 2.98 µM; at human recombinant ALR2 (setting [7]), 2.06 µM and 3.03 µM and 3.84 µM; at human recombinant ALR1 (n = 3), > 100 µM. Moreover, on human recombinant ALR1 (setting [8]), the inhibition at 100 µM was 49.41 ± 0.45%. Further, the “% of Inhibition of Control Value (DPPH)” value in data set [1] (100 μM) is 25.44 ± 2.36%. Also, in data set [2], the MDA inh. % is 26.10 ± 1.06%.
Take `COc1ccc(C=Cc2cc(=O)c(O)cn2CC(=O)O)cc1` [7d, {5-Hydroxy-2-[2-(4-methoxy-phenyl)-vinyl]-4-oxo-4H-pyridin-1-yl}-acetic acid]: the IC50 on human recombinant ALR2 (setting [5]) was 6.78 ± 0.91 µM; on human recombinant ALR2 (setting [6]), 6.78 µM; on human recombinant ALR2 (setting [7]) it was 5.7 µM and 7.92 µM and 6.7 µM. For the same molecule, the I% (ALR2 inhibitory rate) on human recombinant ALR2 (raw data, single replicate, log(dose) -5) amounted to 54.7%.
Consider `COc1ccc(C=Cc2cc(=O)c(O)cn2CC(=O)O)cc1OC` [7e, {2-[2-(3,4-Dimethoxy-phenyl)-vinyl]-5-hydroxy-4-oxo-4H-pyridin-1-yl}-acetic acid], for which the IC50 on human recombinant ALR2 (setting [5]) is 9.56 ± 0.98 µM; on human recombinant ALR2 (setting [6]), 9.56 µM; on human recombinant ALR2 (setting [7]), 9.61 µM and 8.33 µM and 10.7 µM.
Regarding `O=C(O)Cn1cc(O)c(=O)cc1C=Cc1ccc(F)cc1` [7f, {2-[2-(4-Fluoro-phenyl)-vinyl]-5-hydroxy-4-oxo-4H-pyridin-1-yl}-acetic acid], the IC50 at human recombinant ALR2 (setting [5]) was 6.64 ± 2.39 µM; at human recombinant ALR2 (setting [6]) it was 6.64 µM; on human recombinant ALR2 (setting [7]), 4.52 µM and 9.99 µM and 5.42 µM.
On to `O=C(O)Cn1cc(O)c(=O)cc1C=Cc1ccc(F)c(F)c1` [7g, {2-[2-(3,4-Difluoro-phenyl)-vinyl]-5-hydroxy-4-oxo-4H-pyridin-1-yl}-acetic acid], for which the IC50 on human recombinant ALR2 (setting [5]) was 2.11 ± 0.34 µM; on human recombinant ALR2 (setting [6]), 2.11 µM; on human recombinant ALR2 (setting [7]), 2.52 µM and 2.11 µM and 1.7 µM; at human recombinant ALR1 (n = 3) it was > 100 µM. Moreover, the inhibition at 100 µM at human recombinant ALR1 (setting [8]) came out at 35.8 ± 3.23%. The “% of Inhibition of Control Value (DPPH)” value in data set [1] (100 μM) amounted to 28.50 ± 0.95%. For the same molecule, in data set [2], the MDA inh. % was found to be 55.02 ± 3.00%.
Turning to `O=C(O)Cn1cc(O)c(=O)cc1C=Cc1ccc(C(F)(F)F)cc1` [7h, {5-Hydroxy-4-oxo-2-[2-(4-trifluoromethyl-phenyl)-vinyl]-4H-pyridin-1-yl}-acetic acid], the IC50 is 10.7 ± 1.47 µM at human recombinant ALR2 (setting [5]); 10.7 µM at human recombinant ALR2 (setting [6]); 8.88 µM and 10.8 µM and 12.5 µM at human recombinant ALR2 (setting [7]).
For `CS(=O)(=O)c1ccc(C=Cc2cc(=O)c(O)cn2CC(=O)O)cc1` [7i, {5-Hydroxy-2-[2-(4-methanesulfonyl-phenyl)-vinyl]-4-oxo-4H-pyridin-1-yl}-acetic acid], the 50% inhibitory concentration (IC50) at human recombinant ALR2 (setting [5]) was 17.1 ± 2.3 µM; at human recombinant ALR2 (setting [6]) it was 17.1 µM; at human recombinant ALR2 (setting [7]), 16.1 µM and 20.3 µM and 15 µM.
As for `Nc1ccc(C=Cc2cc(=O)c(O)cn2CC(=O)O)cc1` [7j, {2-[2-(4-Amino-phenyl)-vinyl]-5-hydroxy-4-oxo-4H-pyridin-1-yl}-acetic acid], the IC50 is 8.19 ± 0.43 µM at human recombinant ALR2 (setting [5]); 8.19 µM at human recombinant ALR2 (setting [6]); 8.07 µM and 7.74 µM and 8.76 µM on human recombinant ALR2 (setting [7]).
Turning to `O=C(O)Cn1cc(O)c(=O)cc1C=Cc1ccc(O)cc1` [7k, {5-Hydroxy-2-[2-(4-hydroxy-phenyl)-vinyl]-4-oxo-4H-pyridin-1-yl}-acetic acid], the 50% inhibitory concentration (IC50) at human recombinant ALR2 (setting [5]) is 2.36 ± 0.42 µM; on human recombinant ALR2 (setting [7]) it was 2.63 µM and 1.86 µM and 2.86 µM; on human recombinant ALR1 (n = 3) it was 15 ± 0.54 µM. For the same molecule, on human recombinant ALR1, the SI is on record as 6.36. For the same molecule, the inhibition at 100 µM at human recombinant ALR1 (setting [8]) was 75.8 ± 2.34%. Also, the “% of Inhibition of Control Value (DPPH)” value in data set [1] (1 μM) was 33.08 ± 0.72%; in data set [1] (5 μM), 72.01 ± 1.80%; in data set [1] (10 μM), 89.31 ± 0.62%; in data set [1] (100 μM) it was 96.69 ± 0.72%. In data set [2], this molecule displayed an MDA inh. % of 90.73 ± 3.97%.
Regarding `O=C(O)Cn1cc(O)c(=O)cc1C=Cc1ccc(O)c(O)c1` [7l, {2-[2-(3,4-Dihydroxy-phenyl)-vinyl]-5-hydroxy-4-oxo-4H-pyridin-1-yl}-acetic acid], the IC50 on human recombinant ALR2 (setting [5]) is 0.789 ± 0.183 µM; at human recombinant ALR2 (setting [6]), 0.789 µM; on human recombinant ALR2 (setting [7]) it was 0.916 µM and 0.921 µM and 0.53 µM; at human recombinant ALR1 (n = 3), 19.9 ± 1.72 µM. In addition, at human recombinant ALR1, the SI is reported as 25.23. Besides, the inhibition at 100 µM at human recombinant ALR1 (setting [8]) was 80 ± 3.59%. The “% of Inhibition of Control Value (DPPH)” value in data set [1] (1 μM) was 41.48 ± 0.95%; in data set [1] (5 μM), 67.18 ± 0.62%; in data set [1] (10 μM), 82.44 ± 1.65%; in data set [1] (100 μM), 97.96 ± 0.36%. This molecule also registered an MDA inh. % in data set [2] of 88.76 ± 2.04%.
Regarding `Cc1c(O)c(=O)ccn1C` [Deferiprone, 3-hydroxy-1,2-dimethyl-1H-pyridin-4-one], in data set [3], the “% of Inhibition of Control Value (DPPH)” value is given as 63%. Further, the MDA inh. % in data set [4] is 25%.
For `Cc1c(C)c2c(c(C)c1O)CCC(C)(C(=O)O)O2` (stereo not drawn) [Trolox, 6-hydroxy-2,5,7,8-tetramethyl-chroman-2-carboxylic acid, reference compound], the “% of Inhibition of Control Value (DPPH)” value worked out at 11.89 ± 1.39% in data set [1] (1 μM), 45.53 ± 1.12% in data set [1] (5 μM), 80.33 ± 1.22% in data set [1] (10 μM) and 92.32 ± 0.19% in data set [1] (100 μM). Further, the MDA inh. % in data set [2] is listed as 74.82 ± 1.82%.
In the case of `CC(/C=C1\SC(=S)N(CC(=O)O)C1=O)=C\c1ccccc1` [epalrestat, reference compound], the IC50 at human recombinant ALR1 (n = 3) stood at 3.56 ± 0.18 µM. Further, the inhibition at 100 µM on human recombinant ALR1 is 80.8 ± 3.74%.
